Data taken from ChEMBL document CHEMBL1154663, “Synthesis, crystallization, and biological evaluation of an orally active prodrug of gemcitabine” (J Med Chem, 2009).
Blank lines part the entries; values can stand above or below the compound they belong to.

Key:
[1] = Stability in CD1 mouse small intestine homogenate assessed as hydrolysis rate minute at 96 uM; type: ADME, tissue-based; details: tissue homogenate
[2] = Stability in human small intestine homogenate assessed as hydrolysis rate at 96 uM; type: ADME, tissue-based; details: tissue homogenate
[3] = Stability in CD1 mouse small intestine homogenate assessed as hydrolysis rate after 30 mins at 96 uM; type: ADME, tissue-based; details: read-out: Activity
[4] = Stability in human small intestine homogenate assessed as hydrolysis rate after 30 mins at 96 uM; type: ADME, tissue-based; details: read-out: Activity
[5] = Stability in human Caco-2 cell homogenate assessed as half life; type: ADME, Colon
Blood = experiment: Drug level in CD1 mouse portal blood assessed as gemcitabine level at 14.3 mg/kg, po after 5 mins; type: ADME, organism-based; design: dose 14.3 mg/kg, route oral; details: in vivo
HCT-116 [6] = experiment: Antitumor activity in human HCT116 cells xenografted CD1 mouse assessed as maximum tumor reduction at 160 mg/kg, ip administered as total 4 doses for every 3 days measured after 6 weeks; type: functional; design: scale not given: the % may be the effect or the level left; details: route intraperitoneal
[7] = Chemical stability in buffer solution assessed as hydrolysis at pH 1 after 4 hrs at 40 degC; type: physicochemical; details: read-out: solubility
[8] = Chemical stability in buffer solution assessed as hydrolysis at pH 2 after 4 hrs at 40 degC; type: physicochemical; details: read-out: solubility
[9] = Chemical stability in buffer solution assessed as hydrolysis at pH 4 after 4 hrs at 40 degC; type: physicochemical; details: read-out: solubility
[10] = Chemical stability in buffer solution assessed as hydrolysis at pH 6 after 4 hrs at 40 degC; type: physicochemical; details: read-out: solubility
[11] = Chemical stability in buffer solution assessed as hydrolysis at pH 8 after 4 hrs at 40 degC; type: physicochemical; details: read-out: solubility
[12] = Solubility in buffer solution at pH 1 after 4 hrs at 40 degC; type: physicochemical; details: pH 1, 4 h
[13] = Solubility in buffer solution at pH 2 after 4 hrs at 40 degC; type: physicochemical; details: pH 2, 4 h
[14] = Solubility in buffer solution at pH 4 after 4 hrs at 40 degC; type: physicochemical; details: pH 4, 4 h
[15] = Solubility in buffer solution at pH 6 after 4 hrs at 40 degC; type: physicochemical; details: pH 6, 4 h
[16] = Solubility in buffer solution at pH 8 after 4 hrs at 40 degC; type: physicochemical; details: pH 8, 4 h
[17] = Stability in human liver S9 fraction assessed as hydrolysis rate at 100 uM; type: ADME, subcellular; details: s9, 100 µM
[18] = Drug level in CD1 mouse portal blood at 14.3 mg/kg, po after 5 mins; type: ADME, organism-based; design: dose 14.3 mg/kg, route oral; details: read-out: Drug uptake
Mus musculus [19] = experiment: Gemcitabine AUC in CD1 mouse at 14.3 mg/kg, po; type: ADME, organism-based; design: dose 14.3 mg/kg, route oral; details: in vivo
Mus musculus [20] = experiment: Gemcitabine Cmax in CD1 mouse at 14.3 mg/kg, po; type: ADME, organism-based; design: dose 14.3 mg/kg, route oral; details: in vivo
[21] = AUC in po dosed CD1 mouse; type: ADME, organism-based; details: plasma
[22] = Cmax in po dosed CD1 mouse; type: ADME, organism-based; design: route oral; details: in vivo
[23] = Tmax in po dosed CD1 mouse; type: ADME, organism-based; details: in vivo
HCT-116 [24] = experiment: Antitumor activity in human HCT116 cells xenografted CD1 mouse assessed as maximum tumor reduction at 3.77 mg/kg, po administered daily for 14 days measured after 6 weeks; type: functional; design: scale not given: the % may be the effect or the level left
HCT-116 [25] = experiment: Antitumor activity in human HCT116 cells xenografted CD1 mouse assessed as maximum tumor reduction at 7.55 mg/kg, po administered daily for 14 days measured after 6 weeks; type: functional; design: scale not given: the % may be the effect or the level left
[26] = Stability in CD1 mouse liver S9 fraction assessed as hydrolysis rate at 100 uM; type: ADME, subcellular; details: s9, 100 µM

Activity [1]: 2.3 nmol/mg/min | Activity [2]: 3.7 nmol/mg/min | metabolised at 0.5 h, 96 µM [3]: 100% | metabolised at 0.5 h, 96 µM [4]: 100% | half-life [5]: 75 min
SMILES: CC[C@H](C)[C@H](N)C(=O)OC[C@H]1O[C@@H](n2ccc(N)nc2=O)C(F)(F)[C@@H]1O

Drug uptake (Blood): 99 ng/mL
SMILES: Cl.Nc1ccn([C@@H]2O[C@H](CO)[C@@H](O)C2(F)F)c(=O)n1 [GEMCITABINE HYDROCHLORIDE]
Activity (HCT-116 [6]): 71.5%

degraded at 4 h [7]: 21% | degraded at 4 h [8]: 12% | degraded at 4 h [9]: 2% | degraded at 4 h [10]: 0% | degraded at 4 h [11]: 0% | solubility [12]: 1.12% | solubility [13]: 1.79% | solubility [14]: > 2% | solubility [15]: > 2% | Activity [16]: > 2% | Activity [1]: < 0.01 nmol/mg/min | Activity [2]: < 0.01 nmol/mg/min | metabolised at 0.5 h, 96 µM [3]: 1% | metabolised at 0.5 h, 96 µM [4]: 1% | Activity [17]: 27 pmol/min/mg | concentration at 5 min [18]: 653 ng/mL | AUC (Mus musculus [19]): 778 ng·h/mL | Cmax (Mus musculus [20]): 373 ng/mL | AUC [21]: 536 ng·h/mL | Cmax [22]: 535 ng/mL | Tmax [23]: 30 min | Activity [26]: 11 pmol/mg/min
SMILES: CCCC(CCC)C(=O)Nc1ccn([C@@H]2O[C@H](CO)[C@@H](O)C2(F)F)c(=O)n1 [LY-2334737]
Activity (HCT-116 [24]): 56.3% | Activity (HCT-116 [25]): 67.1%
